Assay results as given in US8710091B2, “Imidazolidine-2,4-dione derivatives, and use thereof as a cancer drug” (Ipsen Pharma S.A.S., priority 2009, dated 2014).

Assays:
Format in all cases: cell-based
LNCaP cells [1] = assay: Anti-proliferative activity on LNCaP in complete medium (WST-1); conditions: Homo sapiens, 144 h, 144 h incubation, read-out: IC50 on the LNCaP cells in culture (concentration inhibiting cell proliferation by 50%)
Method: The anti-proliferative activity of the compounds of the present invention is determined on LNCaP in complete medium by applying the following experimental procedure:
The LNCaP cell type (ATCC, 1740) originating from a prostate carcinoma expressing the androgen receptor, this line is hormone-dependent.
Maintenance of the LNCaP line is carried out in complete culture medium: RPMI, 10% of foetal calf serum, 2 mM glutamine, 100 U/ml penicillin, 0.1 mg/ml of streptomycin and 0.01M HEPES, 1 mM sodium pyruvate, 40% of D-glucose. • Seeding the plates:
The LNCaP line is seeded at 20,000 cells/well in 90 μl of complete medium in 96-well plates coated with poly-D-lysine (Biocoat, Costar). • Treatment of the cells: 24 h after the seeding, the cells are treated with 10 μl/well of compound diluted in the culture medium. Experiments of the effect of doses of the compound are carried out on a scale of 1 nM to 100 µM. The concentrations used are the following: 1 nM/10/30/100/300/1000/3000/10,000/100,000 nM. Testosterone (SIGMA T1500) is used as a reference and tested at the same concentrations. The cells are incubated for 144 h at 37° C., 5% CO2. • Reading: On D6, 10 μL of the “WST-1 cell proliferation” reagent (Roche ref 1644807) is added to each well. After incubation for 2 hours at 37° C., 5% CO2, the absorbance at 450 nm is measured by spectrophotometry (Envision, Perkin Elmer). • Results: The experiments are carried out in duplicate and the best compounds are tested twice. […] 2. Antiproliferative Activity on LNCaP in Medium without Steroids: […]

DU145 cells = assay: Antiproliferative activity on DU-145 in complete medium (WST-1); conditions: Homo sapiens, 144 h incubation, read-out: IC50 on the DU145 cells in culture (concentration inhibiting cell proliferation by 50%)
Method: The anti-proliferative activity of the compounds of the present invention is determined on DU-145 in complete medium.
Maintenance of the DU-145 line is carried out in DMEM, 10% of foetal calf serum, 2 mM of glutamine, 100 U/ml of penicillin, 0.1 mg/ml of streptomycin. • Seeding the plates: • The DU145 line is seeded at 400 or 800 cells/well in 90 μl of DMEM complete medium in 96-well plates (TPP). • Treatment of the cells: 24 h after the seeding, the cells are treated with 10 μl/well of compound diluted in the culture medium. Experiments showing the dose-effect of the compound are carried out on a scale of 1 nM to 100 μM. The concentrations used are the following: 1 nM/10/30/100/300/1000/3000/10,000/100,000 nM. The cells are incubated for 144 h at 37° C., 5% CO2. • Reading: On D6, 10 μL, of cell proliferation reagent WST-1 (Roche ref 1644807) is added to each well. After incubation for 2 to 4 hours at 37° C., 5% CO2, the absorbance at 450 nm is measured by spectrophotometry (Envision, Perkin Elmer). • Results: The experiments are carried out in duplicate and the best compounds are tested twice. […] 4. Measurement of the Disappearance of the Androgen Receptor

LNCaP cells [2] = assay: Antiproliferative activity on LNCaP in medium without steroids (WST-1); conditions: 144 h, 1 nM to 100 μM
Method: The anti-proliferative activity of the compounds of the present invention is determined on LNCaP in medium without steroids.
The maintenance of the LNCaP line is carried out under the usual conditions in RPMI, 10% of foetal calf serum, 2 mM of glutamine, 100 U/ml of penicillin, 0.1 mg/ml of streptomycin and 0.01M HEPES, 1 mM sodium pyruvate, 40% of D-glucose.
For the study under conditions without steroids, 24 hours before the seeding the culture medium of the cells is eliminated. The cells are washed with PBS, then incubated in the presence of RPMI medium without phenol red, 10% of foetal calf serum without steroids (treatment with carbon), 2 mM of glutamine, 100 U/ml of penicillin, 0.1 mg/ml of streptomycin and 0.01M HEPES, 1 mM of sodium pyruvate, 40% of D-glucose. • Seeding the plates:
The LNCaP line is seeded at 20,000 cells/well in 90 μl of RPMI medium with 10% foetal calf serum without steroids in 96-well plates coated with poly-D-lysine (Biocoat, Costar). • Treatment of the cells: 24 h after seeding, the cells are treated with 10 μl/well of compound diluted in the culture medium. Experiments showing the dose-effect of the compound are carried out on a scale of 1 nM to 100 μM. The concentrations used are the following: 1 nM/10/30/100/300/1000/3000/10,000/100,000 nM. Testosterone (SIGMA T1500) is used as a reference and tested at the same concentrations. The cells are incubated for 144 h at 37° C., 5% CO2. • Reading: On D6, 10 μL of cell proliferation reagent WST-1 (Roche ref 1644807) is added to each well. After incubation for 2 to 4 hours at 37° C., 5% CO2, the absorbance at 450 nm is measured by spectrophotometry (Envision, Perkin Elmer). • Results: The experiments are carried out in duplicate and the best compounds are tested twice. […] 3. Antiproliferative Activity on DU-145 in Complete Medium: […]

| IC50 (LNCaP cells [1]) | IC50 (DU145 cells) | SMILES | effect on the cell proliferation of LNCaP cultured in medium without steroids (FIG. 1) (LNCaP cells [2]) |
| --- | --- | --- | --- |
| < 2 µM | > 10 µM | CC1(C)C(=O)N(c2ccc([N+](=O)[O-])c(C(F)(F)F)c2)C(=O)N1CCCCCCCCCCC[S+]([O-])CCCC(F)(F)C(F)(F)F (centres unmarked) [Example 11, 5,5-dimethyl-3-[4-nitro-3-(trifluoromethyl)phenyl]-1-{11-[(4,4,5,5,5-pentafluoropentyl)sulphinyl]undecyl}imidazolidine-2,4-dione] | – |
| < 2 µM | > 10 µM | Cc1cc(N2C(=O)N(CCCCCCCCC[S+]([O-])CCCC(F)(F)C(F)(F)F)C(C)(C)C2=O)ccc1NS(N)(=O)=O (centres unmarked) [Example 31, N-[4-(4,4-dimethyl-2,5-dioxo-3-{9-[(4,4,5,5,5-pentafluoropentyl)sulphinyl]nonyl}imidazolidin-1-yl)-2-methylphenyl]sulphamide] | – |
| < 2 µM | > 10 µM | CCC(C)NC(=O)Nc1ccc(N2C(=O)N(CCCCCCCCC[S+]([O-])CCCC(F)(F)C(F)(F)F)C(C)(C)C2=O)cc1C (centres unmarked) [Example 28, 1-[4-(4,4-dimethyl-2,5-dioxo-3-{9-[(4,4,5,5,5-pentafluoropentyl)sulphinyl]nonyl}imidazolidin-1-yl)-2-methylphenyl]-3-(1-methylpropyl)urea] | – |
| < 2 µM | > 10 µM | CC(=O)N(C)c1ccc(N2C(=O)N(CCCCCCCCC[S+]([O-])CCCC(F)(F)C(F)(F)F)C(C)(C)C2=O)cc1C(F)(F)F (centres unmarked) [Example 40, N-[4-(4,4-dimethyl-2,5-dioxo-3-{9-[(4,4,5,5,5-pentafluoropentyl)sulphinyl]nonyl}imidazolidin-1-yl)-2-(trifluoromethyl)phenyl]-N-methylacetamide] | – |

Further lines, the compound ahead of its results:

| SMILES | IC50 (LNCaP cells [1]) | IC50 (DU145 cells) | effect on the cell proliferation of LNCaP cultured in medium without steroids (FIG. 1) (LNCaP cells [2]) |
| --- | --- | --- | --- |
| CC1(C)C(=O)N(c2ccc([N+](=O)[O-])c(C(F)(F)F)c2)C(=O)N1CCCCCCCC[S+]([O-])CCCC(F)(F)C(F)(F)F (centres unmarked) [Example 7, 5,5-dimethyl-3-[4-nitro-3-(trifluoromethyl)phenyl]-1-{8-[(4,4,5,5,5-pentafluoropentyl)sulphinyl]octyl}imidazolidine-2,4-dione] | < 2 µM | > 10 µM | – |
| CC1(C)NC(=O)N(c2ccc([N+](=O)[O-])c(C(F)(F)F)c2)C1=O [nilutamide, reference compound] | – | – | biphasic profile with an agonist activity at low concentration followed by an inhibitory activity at high concentration |
| CC1(C)C(=O)N(c2ccc([N+](=O)[O-])c(C(F)(F)F)c2)C(=O)N1CCCCC[S+]([O-])CCCC(F)(F)C(F)(F)F (centres unmarked) [Example 5, 5,5-dimethyl-3-[4-nitro-3-(trifluoromethyl)phenyl]-1-{5-[(4,4,5,5,5-pentafluoropentyl)sulphinyl]pentyl}imidazolidine-2,4-dione] | < 2 µM | > 10 µM | – |
| CC1(C)C(=O)N(c2ccc([N+](=O)[O-])c(C(F)(F)F)c2)C(=O)N1CCCCCCCCCS(=O)(=O)CCCC(F)(F)C(F)(F)F [Example 3, 5,5-dimethyl-3-[4-nitro-3-(trifluoromethyl)phenyl]-1-{9-[(4,4,5,5,5-pentafluoropentyl)sulphonyl]nonyl}imidazolidine-2,4-dione] | < 2 µM | > 10 µM | – |
| CC1(C)C(=O)N(c2ccc([N+](=O)[O-])c(C(F)(F)F)c2)C(=O)N1CCCCCCCCCSCCCC(F)(F)C(F)(F)F [Example 1, 5,5-dimethyl-3-[4-nitro-3-(trifluoromethyl)phenyl]-1-{9-[(4,4,5,5,5-pentafluoropentyl)thio]nonyl}imidazolidine-2,4-dione] | < 2 µM | > 10 µM | – |
| Cc1cc(N2C(=O)N(CCCCCCCCC[S+]([O-])CCCC(F)(F)C(F)(F)F)C(C)(C)C2=O)ccc1[N+](=O)[O-] (centres unmarked) [Example 24, 5,5-dimethyl-3-(3-methyl-4-nitrophenyl)-1-{9-[(4,4,5,5,5-pentafluoropentyl)sulphinyl]nonyl}imidazolidine-2,4-dione] | < 2 µM | > 10 µM | – |
| CC1(C)C(=O)N(c2ccc([N+](=O)[O-])c(C(F)(F)F)c2)C(=O)N1CCCCCSCCCC(F)(F)C(F)(F)F [Example 4, 5,5-dimethyl-3-[4-nitro-3-(trifluoromethyl)phenyl]-1-{5-[(4,4,5,5,5-pentafluoropentyl)thio]pentyl}imidazolidine-2,4-dione] | < 2 µM | > 10 µM | – |
| Cc1cc(N2C(=O)N(CCCCCCCCCS(=O)(=O)CCCC(F)(F)C(F)(F)F)C(C)(C)C2=O)ccc1NS(N)(=O)=O [Example 32, N-[4-(4,4-dimethyl-2,5-dioxo-3-{9-[(4,4,5,5,5-pentafluoropentyl)sulphonyl]nonyl}imidazolidin-1-yl)-2-methylphenyl]sulphamide] | < 2 µM | > 10 µM | – |
